Measurements as given in paper PMC7127853 (Bioorganic & Medicinal Chemistry, 2011).

Experiments:
[1] = test system: human embryonic lung (HEL) fibroblasts; experiment: Cytotoxicity, cell morphology; format: cell-based; settings: HEL cells; minimum cytotoxic concentration altering cell morphology
[2] = test system: Reovirus-1; experiment: Antiviral assay, Reovirus-1 in Vero cells; format: cell-based; settings: read-out: Antiviral activity: EC50 Reovirus-1 (Vero)
[3] = test system: African green monkey cells (Vero); experiment: Cytotoxicity, cell morphology; format: cell-based
[4] = test system: Madin Darby canine kidney cells (MDCK); experiment: Cytotoxicity, cell morphology; format: cell-based
[5] = test system: HIV-1 (IIIB); experiment: Anti-HIV-1 assay in CEM cells; format: cell-based, human immunodeficiency virus type 1; settings: compared with HDP–PMEA of ref [12]
[6] = test system: human cytomegalovirus (HCMV) strain AD-169; experiment: Antiviral assay, HCMV AD-169 in HEL cells; format: cell-based; settings: compared with TDP/HDP (S)-HPMPC of ref [11]

SMILES	Cytotoxicity Cell morphology (MCC) (HEL) [1]	EC50 [2]	Cytotoxicity Cell morphology (MCC) MDCK [4]	further results
Nc1ccn(C[C@@H](CO)OCP(=O)(O)O)c(=O)n1.O.O [(S)-HPMPC, Cidofovir]	>317 μM	–	–	–
Nc1nc2c(ncn2COCCO)c(=O)[nH]1 [Acyclovir]	>222 μM	–	–	–
O=c1[nH]c(=O)n([C@H]2C[C@H](O)[C@@H](CO)O2)cc1/C=C/Br [Brivudin]	>150 μM	–	–	–
Nc1ncnc2c1ncn2CCOCP(=O)(OCCCCCCCCCCO)OCCCCCCCCCCO [Compound 5, Bis(10-Hydroxydecyl) ester of 9-[2-(phosphonomethoxy)ethyl]adenine]	–	> 34 µM	–	–
Nc1ncnc2c1ncn2CCOCP(=O)(OCCOCCCCCCCCCCO)OCCOCCCCCCCCCCO [Compound 9, Bis{2-[(10-Hydroxydecyl)oxy]ethyl} ester of 9-[2-(phosphonomethoxy)ethyl]adenine]	148 μM	> 29.7 µM	29.7 μM	Cytotoxicity Cell morphology (MCC) Vero [3]: 148 μM
CCOCCOCCOCCOCCOCCOCCOP(=O)(O)COCCn1cnc2c(N)ncnc21 [Compound 12, 3,6,9,12,15,18-Hexaoxaeicosyl ester of 9-[2-(phosphonomethoxy)ethyl]adenine]	–	–	–	Loss of anti-HIV activity compared to HDP–PMEA [5]: > 10^7 fold
Nc1ccn(C[C@@H](CO)OCP(=O)(O)OCCOCCOCCOCCOCCOCCO)c(=O)n1 [Compound 16, 14-Hydroxy-3,6,9,12-tetraoxaheptadecyl ester of (S)-1-[3-hydroxy-2-(phophonomethoxy)propyl]cytosine]	–	–	–	Drop of activity against CMV versus analogous simple alkoxyalkyl ester [6]: 400- to 1000 fold
Nc1nc(O)c2ncn(COC(CO)CO)c2n1 [Ganciclovir]	>392 μM	–	–	–
CCOC(=O)C1=C[C@@H](OC(CC)CC)[C@H](NC(C)=O)[C@@H](N)C1 [Oseltamivir]	–	–	>100 μM	–
NC(=O)c1ncn([C@@H]2O[C@H](CO)[C@@H](O)[C@H]2O)n1 [Ribavirin, reference compound]	–	≥ 174 µM	>100 μM	–
